We go through 1 compound from PMC7692735, “Bromo-Cyclobutenaminones as New Covalent UDP-N-Acetylglucosamine Enolpyruvyl Transferase (MurA) Inhibitors” (Pharmaceuticals, 2020).

“Also recorded” adds a separate entry of the source.

The IC50 is the concentration needed to halve the response being measured. Low readings indicate higher potency, high ones lower potency. By remaining activity is commonly meant the share of the control activity or signal that is left under treatment.

Series [1] concerns MurA Cys115. Briefly: MS/MS of tryptic digested MurA, covalent labelling. The class given is binding, E. coli. To be noted: tryptic peptide amino acids 104–120. The protocol: The tryptic digestion method was adapted from our former publication.
Briefly, 50 μL of MurA (42 μM) and 10 μL 0.2% (w/v) RapiGest SF (Waters Corp., Milford, MA, USA) solution buffered with 50 mM ammonium bicarbonate (NH4HCO3) were mixed (pH = 7.8). 4.5 μL of 45 mM DTT (~200 nmol) in 100 mM NH4HCO3 was added and the mixture kept at 37.5 °C for 30 min. After cooling the sample to room temperature, 7.5 μL of 100 mM iodoacetamide (750 nmol) in 100 mM NH4HCO3 was added and the mixture placed in the dark at room temperature for 30 min. The reduced and alkylated protein was then digested by 10 μL (1 mg mL^−1) trypsin (the enzyme-to-protein ratio was 1:10) (Sigma, St Louis, MO, USA). The sample was incubated at 37 °C overnight. To degrade the surfactant, 7 μL of HCOOH (500 mM) solution was added to the digested […] sample to obtain the final 40 mM (pH ≈ 2) solution which was incubated at 37 °C for 45 min. For LC-MS analysis, the acid-treated sample was centrifuged for 5 min at 13,000 rpm.
A QTRAP 6500 triple quadruple—linear ion trap mass spectrometer, equipped with a Turbo V source in electrospray mode (AB Sciex Pte. Ltd., Framingham, MA, USA) and an Agilent 1100 Binary Pump HPLC system (Agilent Technologies, Waldbronn, Germany) equipped with an autosampler was used for LC-MS/MS analysis. […]

For series [2], the target named is T1, MurA (E. coli) (Escherichia coli, UniProt P0A749).
T1 construct: made in house; host or cells: E. coli
Nature of the series: MurA assay, colorimetric malachite green method. The class given is biochemical. The method, then:
MurAEC protein was recombinant, expressed in E. coli. The inhibition of MurA was monitored with the colorimetric malachite green method in which orthophosphate generated during the reaction is measured. MurA enzyme (E. coli) was pre-incubated with the substrate UNAG and compound for 30 min at 37 °C. The reaction was started by the addition of the second substrate PEP, resulting in a mixture with a final volume of 50 μL. The mixtures contained: 50 mM Hepes, pH 7.8, 0.005% Triton X-114, 200 μM UNAG, 100 μM PEP, purified MurA (diluted in 50 mM Hepes, pH 7.8) and 500 μM of each tested compound dissolved in DMSO. All compounds were soluble in the assay mixtures containing 5% DMSO (v/v). After incubation for 15 min at 37 °C, the enzyme reaction was terminated by adding Biomol® reagent (100μL) and the absorbance was measured at 650 nm after 5 min. All of the experiments were run in duplicate. Remaining activities (RAs) were calculated with respect to similar assays without the tested compounds and with 5% DMSO. The IC50 values, the concentration of the compound at which the remaining activity was 50%, were determined by measuring the remaining activities at seven different compound concentrations. The data are expressed as means of duplicate determinations, and the standard deviations were within 10% of the given values. A time-dependent inhibition assay was also performed. The IC50 values were determined at 0, 15 and 30 min of pre-incubation.

The nature of series [3]: Aqueous stability assay in PBS buffer. The class given is physicochemical. To be noted: PBS buffer pH 7.4, room temperature; read-out: t1/2 aqueous degradation (converted). The method, then:
(§1) The assay was adapted from our former publication.
(§2) For the glutathione assay, 500 μM solution of the fragment (PBS buffer pH 7.4, 10% MeCN, 250 μL) with 200 μM solution of indoprofen (Merck KGaA, Darmstadt, Germany) as internal standard was added to 10 mM glutathione (Merck KGaA, Darmstadt, Germany) solution (dissolved in PBS buffer, 250 μL) in a 1:1 ratio. The final concentration was 250 μM fragment, 100 μM indoprofen, 5 mM glutathione and 5% MeCN (500 μL). The final mixture was analyzed by HPLC-MS (Shimadzu LCMS-2020) after 0, 1, 2, 4, 20, 25, 48, 72 h time intervals. […] The AUC (area under the curve) values were determined via integration of HPLC spectra then corrected using the internal standard. […] The data are expressed as means of duplicate determinations, and the standard deviations were within 10% of the given values. […]
(§3) The reaction half-life for pseudo-first-order reactions is t1/2 = ln2/k, where k is the reaction rate. […] In our case, the corrected kdeg and keff (regarding blank and GSH-containing samples, respectively) can be calculated by linear regression of the data points of the kinetic measurements. The corrected kGSH is calculated by keff − kdeg, and finally, the half-life time is determined using the equation t1/2(GSH) = ln2/kGSH.

Series [4] is described as follows: GSH reactivity assay (HPLC-MS). To be noted: 250 μM fragment, 5 mM glutathione, PBS pH 7.4, 5% MeCN. The series is classed as physicochemical. The protocol: as §1, §2, §3

T1 sequence (P0A749 whole entry): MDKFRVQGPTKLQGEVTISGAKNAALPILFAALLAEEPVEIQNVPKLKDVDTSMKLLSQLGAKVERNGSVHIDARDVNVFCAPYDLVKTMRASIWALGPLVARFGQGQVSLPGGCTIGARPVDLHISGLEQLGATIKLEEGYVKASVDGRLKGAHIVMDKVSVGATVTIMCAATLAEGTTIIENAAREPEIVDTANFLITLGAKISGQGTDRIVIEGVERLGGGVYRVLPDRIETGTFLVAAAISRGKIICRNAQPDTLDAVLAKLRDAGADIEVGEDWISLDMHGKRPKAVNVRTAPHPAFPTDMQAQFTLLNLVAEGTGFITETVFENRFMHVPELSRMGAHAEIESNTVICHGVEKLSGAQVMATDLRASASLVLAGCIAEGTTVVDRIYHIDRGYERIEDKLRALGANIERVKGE

As for `CN(C(=O)c1ccccc1)C1=C(Br)C(=O)C1(C)C` [17a, N-(2-bromo-4,4-dimethyl-3-oxocyclobut-1-en-1-yl)-N-methylbenzamide], the “Covalent labelling site on MurA by MS/MS” value in series [1] is given as “labelled on Cys115; also recorded: labeling on Cys115”. In series [2] (IC50, 30 min preincubation), this compound gave a concentration for half-maximal inhibition (IC50) of 138 µM. Also, the remaining activity at 500 µM in series [2] (fragment 500 μM, 30 min preincubation at 37 °C, read-out: RA (remaining activity) at 500 µM) turned out to be 12 ± 3%. Further, the half-life at 250 μM in series [3] was 36.5 h. Further, the “kGSH rate constant of conjugation with GSH” value in series [4] was 0.0128 M/min.
